{
  "source": "paper PMC7181660",
  "about": "“A novel specific PERK activator reduces toxicity and extends survival in Huntington's disease models” (Scientific Reports, 2020)",
  "experiment_in_all_cases": "biochemical",
  "type_in_all_cases": "biochemical",
  "key": {"panel of 391 kinases [1]": {"target": "panel of 391 kinases (Homo sapiens, UniProt Q8IWQ3)", "details": "BRSK2, MK-28 1 µM, ATP 1 µM"}, "panel of 391 kinases [2]": {"target": "panel of 391 kinases (Homo sapiens, UniProt P06213)", "details": "IR, MK-28 1 µM, ATP 1 µM"}, "panel of 391 kinases [3]": {"target": "panel of 391 kinases (Homo sapiens, UniProt P07332)", "details": "FES/FPS, MK-28 1 µM, ATP 1 µM"}, "panel of 391 kinases [4]": {"target": "panel of 391 kinases (Homo sapiens, UniProt Q07912)", "details": "ACK1, MK-28 1 µM, ATP 1 µM"}, "panel of 391 kinases [5]": {"target": "panel of 391 kinases (Homo sapiens, UniProt Q9BYT3)", "details": "STK33, MK-28 1 µM, ATP 1 µM"}, "panel of 391 kinases [6]": {"target": "panel of 391 kinases (Homo sapiens, UniProt P29320)", "details": "EPHA3, MK-28 1 µM, ATP 1 µM"}, "panel of 391 kinases [7]": {"target": "panel of 391 kinases (Homo sapiens, UniProt Q8TDC3)", "details": "BRSK1, MK-28 1 µM, ATP 1 µM"}, "panel of 391 kinases [8]": {"target": "panel of 391 kinases (Homo sapiens, UniProt P36888)", "sequence (P36888 27-993)": "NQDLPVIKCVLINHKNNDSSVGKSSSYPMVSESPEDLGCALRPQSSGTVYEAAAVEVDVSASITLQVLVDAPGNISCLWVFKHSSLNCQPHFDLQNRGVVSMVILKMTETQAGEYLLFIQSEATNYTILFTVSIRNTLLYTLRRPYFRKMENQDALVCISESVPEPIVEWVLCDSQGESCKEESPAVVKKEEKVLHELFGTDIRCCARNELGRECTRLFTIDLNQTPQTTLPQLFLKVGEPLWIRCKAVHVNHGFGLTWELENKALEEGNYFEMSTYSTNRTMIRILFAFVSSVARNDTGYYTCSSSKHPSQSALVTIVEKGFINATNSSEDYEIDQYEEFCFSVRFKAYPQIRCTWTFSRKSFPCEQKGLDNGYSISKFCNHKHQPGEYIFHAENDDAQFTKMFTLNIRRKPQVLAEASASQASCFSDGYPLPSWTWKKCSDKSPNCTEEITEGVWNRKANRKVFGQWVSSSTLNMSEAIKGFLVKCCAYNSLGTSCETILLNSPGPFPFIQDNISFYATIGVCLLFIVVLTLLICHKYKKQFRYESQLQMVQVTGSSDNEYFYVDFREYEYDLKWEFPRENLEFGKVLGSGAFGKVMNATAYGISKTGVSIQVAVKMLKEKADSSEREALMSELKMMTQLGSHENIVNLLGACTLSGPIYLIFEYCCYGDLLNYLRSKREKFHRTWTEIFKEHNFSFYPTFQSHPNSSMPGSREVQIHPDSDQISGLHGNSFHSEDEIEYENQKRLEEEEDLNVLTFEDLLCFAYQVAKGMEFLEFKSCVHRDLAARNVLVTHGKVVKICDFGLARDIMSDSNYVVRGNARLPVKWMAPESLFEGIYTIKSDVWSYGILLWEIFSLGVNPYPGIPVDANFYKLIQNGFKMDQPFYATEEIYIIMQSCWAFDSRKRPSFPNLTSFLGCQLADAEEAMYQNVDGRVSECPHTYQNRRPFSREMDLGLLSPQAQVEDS", "details": "FLT3, MK-28 1 µM, ATP 1 µM"}, "panel of 391 kinases [9]": {"target": "panel of 391 kinases (Homo sapiens, UniProt Q9H093)", "sequence (Q9H093 whole entry)": "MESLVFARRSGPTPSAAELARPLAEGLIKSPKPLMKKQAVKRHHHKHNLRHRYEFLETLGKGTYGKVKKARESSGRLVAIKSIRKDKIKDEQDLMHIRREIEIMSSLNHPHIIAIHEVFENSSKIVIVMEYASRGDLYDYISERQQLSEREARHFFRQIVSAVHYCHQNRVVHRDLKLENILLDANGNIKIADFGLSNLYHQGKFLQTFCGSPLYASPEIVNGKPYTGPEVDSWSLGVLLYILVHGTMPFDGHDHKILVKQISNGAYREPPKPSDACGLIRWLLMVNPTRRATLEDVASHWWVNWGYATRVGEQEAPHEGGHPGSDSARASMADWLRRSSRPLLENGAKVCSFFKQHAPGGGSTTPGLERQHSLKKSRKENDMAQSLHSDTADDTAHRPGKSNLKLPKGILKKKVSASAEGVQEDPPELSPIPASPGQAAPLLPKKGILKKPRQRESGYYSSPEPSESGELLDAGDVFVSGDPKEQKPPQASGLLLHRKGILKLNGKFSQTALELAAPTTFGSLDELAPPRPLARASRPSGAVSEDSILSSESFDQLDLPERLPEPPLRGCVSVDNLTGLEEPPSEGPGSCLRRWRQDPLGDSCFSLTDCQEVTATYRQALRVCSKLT", "details": "SNARK/NUAK2, MK-28 1 µM, ATP 1 µM"}, "panel of 391 kinases [10]": {"target": "panel of 391 kinases (Homo sapiens, UniProt Q8WTQ7)", "sequence (Q8WTQ7 whole entry)": "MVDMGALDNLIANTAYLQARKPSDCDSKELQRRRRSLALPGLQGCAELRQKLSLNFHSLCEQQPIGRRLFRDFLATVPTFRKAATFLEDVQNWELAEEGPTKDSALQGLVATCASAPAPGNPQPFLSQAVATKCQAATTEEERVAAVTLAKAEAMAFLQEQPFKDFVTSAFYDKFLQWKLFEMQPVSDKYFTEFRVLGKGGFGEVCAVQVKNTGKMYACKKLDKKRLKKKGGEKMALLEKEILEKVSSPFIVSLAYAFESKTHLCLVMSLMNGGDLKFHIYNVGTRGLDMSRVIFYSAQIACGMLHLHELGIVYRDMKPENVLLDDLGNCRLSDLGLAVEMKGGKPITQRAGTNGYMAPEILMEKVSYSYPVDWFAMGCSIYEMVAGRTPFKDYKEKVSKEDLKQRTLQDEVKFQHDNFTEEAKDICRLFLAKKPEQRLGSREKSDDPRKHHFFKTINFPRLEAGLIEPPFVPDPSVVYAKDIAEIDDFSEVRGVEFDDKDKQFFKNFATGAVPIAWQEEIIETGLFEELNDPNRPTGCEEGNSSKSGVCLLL", "details": "GRK7, MK-28 1 µM, ATP 1 µM"}, "panel of 391 kinases [11]": {"target": "panel of 391 kinases (Homo sapiens, UniProt P51817)", "sequence (P51817 whole entry)": "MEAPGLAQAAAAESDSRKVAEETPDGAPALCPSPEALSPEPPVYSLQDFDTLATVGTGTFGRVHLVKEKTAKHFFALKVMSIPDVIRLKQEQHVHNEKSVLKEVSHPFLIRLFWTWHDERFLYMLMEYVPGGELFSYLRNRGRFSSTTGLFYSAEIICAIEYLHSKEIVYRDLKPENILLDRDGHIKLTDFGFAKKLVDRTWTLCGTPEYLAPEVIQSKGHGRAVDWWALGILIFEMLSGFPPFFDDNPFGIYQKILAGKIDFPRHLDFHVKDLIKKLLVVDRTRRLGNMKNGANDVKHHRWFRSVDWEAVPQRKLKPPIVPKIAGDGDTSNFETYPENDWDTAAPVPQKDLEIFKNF", "details": "PRKX, MK-28 1 µM, ATP 1 µM"}, "panel of 391 kinases [12]": {"target": "panel of 391 kinases (Homo sapiens, UniProt P05771)", "details": "PKCb1, MK-28 1 µM, ATP 1 µM"}, "panel of 391 kinases [13]": {"target": "panel of 391 kinases (Homo sapiens, UniProt P15056)", "details": "BRAF, MK-28 1 µM, ATP 1 µM"}, "panel of 391 kinases [14]": {"target": "panel of 391 kinases (Homo sapiens, UniProt Q52WX2)", "details": "SBK1, MK-28 1 µM, ATP 1 µM"}, "panel of 391 kinases [15]": {"target": "panel of 391 kinases (Homo sapiens, UniProt O00141)", "sequence (O00141 whole entry)": "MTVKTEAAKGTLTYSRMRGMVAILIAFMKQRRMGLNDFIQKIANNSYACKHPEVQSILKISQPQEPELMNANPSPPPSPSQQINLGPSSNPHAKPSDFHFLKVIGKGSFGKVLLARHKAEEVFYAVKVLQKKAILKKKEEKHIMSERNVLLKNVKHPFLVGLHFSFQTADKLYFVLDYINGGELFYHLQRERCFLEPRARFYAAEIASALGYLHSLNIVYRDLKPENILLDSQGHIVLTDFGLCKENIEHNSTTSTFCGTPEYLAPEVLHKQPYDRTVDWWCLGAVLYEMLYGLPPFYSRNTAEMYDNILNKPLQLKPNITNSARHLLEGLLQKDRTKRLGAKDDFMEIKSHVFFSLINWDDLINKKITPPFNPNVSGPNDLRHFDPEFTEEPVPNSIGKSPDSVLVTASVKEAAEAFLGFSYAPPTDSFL", "details": "SGK1, MK-28 1 µM, ATP 1 µM"}, "panel of 391 kinases [16]": {"target": "panel of 391 kinases (Homo sapiens, UniProt P22612)", "sequence (P22612 whole entry)": "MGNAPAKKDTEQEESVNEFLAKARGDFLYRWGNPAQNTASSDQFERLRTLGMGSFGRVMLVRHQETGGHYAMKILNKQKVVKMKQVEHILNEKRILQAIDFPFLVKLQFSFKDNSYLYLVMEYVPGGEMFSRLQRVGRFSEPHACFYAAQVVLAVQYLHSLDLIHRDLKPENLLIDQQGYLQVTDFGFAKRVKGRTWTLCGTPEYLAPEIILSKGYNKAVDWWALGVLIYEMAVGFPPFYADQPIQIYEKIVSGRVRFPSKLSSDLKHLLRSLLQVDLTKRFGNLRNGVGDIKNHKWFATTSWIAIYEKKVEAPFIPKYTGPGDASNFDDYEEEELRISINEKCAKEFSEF", "details": "PKAcg, MK-28 1 µM, ATP 1 µM"}, "panel of 391 kinases [17]": {"target": "panel of 391 kinases (Homo sapiens, UniProt P11309)", "sequence (P11309 whole entry)": "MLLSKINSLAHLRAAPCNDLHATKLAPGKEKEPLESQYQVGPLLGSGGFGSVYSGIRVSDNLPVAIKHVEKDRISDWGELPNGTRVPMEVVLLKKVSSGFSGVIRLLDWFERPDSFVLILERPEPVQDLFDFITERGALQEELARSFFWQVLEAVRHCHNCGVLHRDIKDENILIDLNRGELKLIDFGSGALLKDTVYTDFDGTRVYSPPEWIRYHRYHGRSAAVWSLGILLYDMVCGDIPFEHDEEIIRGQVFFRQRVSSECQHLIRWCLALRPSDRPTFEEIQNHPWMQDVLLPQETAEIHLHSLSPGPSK", "details": "PIM1, MK-28 1 µM, ATP 1 µM"}, "panel of 391 kinases [18]": {"target": "panel of 391 kinases (Homo sapiens, UniProt P06241)", "details": "FYN, MK-28 1 µM, ATP 1 µM"}, "panel of 391 kinases [19]": {"target": "panel of 391 kinases (Homo sapiens, UniProt Q9BUB5)", "sequence (Q9BUB5 whole entry)": "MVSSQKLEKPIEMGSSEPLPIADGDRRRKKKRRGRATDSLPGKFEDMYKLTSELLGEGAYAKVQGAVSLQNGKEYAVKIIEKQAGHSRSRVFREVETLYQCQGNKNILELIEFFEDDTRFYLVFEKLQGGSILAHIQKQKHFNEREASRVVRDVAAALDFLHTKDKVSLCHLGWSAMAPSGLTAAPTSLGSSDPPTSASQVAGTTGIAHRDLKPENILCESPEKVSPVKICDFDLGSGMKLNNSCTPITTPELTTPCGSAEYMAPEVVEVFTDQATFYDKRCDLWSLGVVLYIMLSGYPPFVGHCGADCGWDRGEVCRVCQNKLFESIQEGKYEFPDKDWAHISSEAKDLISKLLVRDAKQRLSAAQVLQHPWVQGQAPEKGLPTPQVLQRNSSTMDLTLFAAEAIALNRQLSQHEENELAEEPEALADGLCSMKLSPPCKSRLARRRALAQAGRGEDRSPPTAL", "details": "MNK1, MK-28 1 µM, ATP 1 µM"}, "panel of 391 kinases [20]": {"target": "panel of 391 kinases (Homo sapiens, UniProt P53355)", "details": "DAPK1, MK-28 1 µM, ATP 1 µM"}, "panel of 391 kinases [21]": {"target": "panel of 391 kinases (Homo sapiens, UniProt P51813)", "sequence (P51813 whole entry)": "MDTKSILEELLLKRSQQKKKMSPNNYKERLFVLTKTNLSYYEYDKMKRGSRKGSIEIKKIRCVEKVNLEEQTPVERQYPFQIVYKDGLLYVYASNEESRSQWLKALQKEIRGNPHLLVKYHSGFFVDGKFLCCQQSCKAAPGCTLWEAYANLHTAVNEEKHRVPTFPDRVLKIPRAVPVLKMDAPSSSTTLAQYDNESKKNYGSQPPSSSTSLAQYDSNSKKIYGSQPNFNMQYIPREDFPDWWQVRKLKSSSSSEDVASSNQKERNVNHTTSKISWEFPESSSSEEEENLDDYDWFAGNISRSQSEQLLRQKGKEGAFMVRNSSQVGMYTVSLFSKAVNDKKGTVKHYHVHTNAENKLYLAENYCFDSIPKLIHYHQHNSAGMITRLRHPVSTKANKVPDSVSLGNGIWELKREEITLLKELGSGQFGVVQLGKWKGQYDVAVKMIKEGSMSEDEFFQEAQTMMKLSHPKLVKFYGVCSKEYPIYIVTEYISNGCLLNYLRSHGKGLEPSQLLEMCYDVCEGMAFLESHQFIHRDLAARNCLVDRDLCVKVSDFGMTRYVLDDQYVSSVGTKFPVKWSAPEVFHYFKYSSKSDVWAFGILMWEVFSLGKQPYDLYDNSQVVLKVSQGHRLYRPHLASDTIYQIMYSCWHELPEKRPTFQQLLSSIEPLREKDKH", "details": "BMX/ETK, MK-28 1 µM, ATP 1 µM"}, "panel of 391 kinases [22]": {"target": "panel of 391 kinases (Homo sapiens, UniProt P08631)", "details": "HCK, MK-28 1 µM, ATP 1 µM"}, "panel of 391 kinases [23]": {"target": "panel of 391 kinases (Homo sapiens, UniProt O75116)", "details": "ROCK2, MK-28 1 µM, ATP 1 µM"}, "panel of 391 kinases [24]": {"target": "panel of 391 kinases (Homo sapiens, UniProt Q02779)", "details": "MLK2/MAP3K10, MK-28 1 µM, ATP 1 µM"}, "panel of 391 kinases [25]": {"target": "panel of 391 kinases (Homo sapiens, UniProt P04049)", "details": "RAF1, MK-28 1 µM, ATP 1 µM"}, "panel of 391 kinases [26]": {"target": "panel of 391 kinases (Homo sapiens, UniProt P53779)", "details": "JNK3, MK-28 1 µM, ATP 1 µM"}, "panel of 391 kinases [27]": {"target": "panel of 391 kinases (Homo sapiens, UniProt Q9H2G2)", "details": "SLK/STK2, MK-28 1 µM, ATP 1 µM"}, "[28]": {"details": "read-out: % Enzyme Activity (relative to DMSO controls)"}},
  "data": [
    {"smiles": "CN(/N=C\\c1ccc(O)c(O)c1)c1nc(-c2ccccc2)cc(-c2ccccc2)n1", "note": "[MK-28]", "values": [
      {"measurement": "% Enzyme Activity (relative to DMSO controls)", "setting": "panel of 391 kinases [1]", "result": 99.36, "unit": "%"},
      {"measurement": "remaining activity at 1 µM", "setting": "panel of 391 kinases [1]; [28]", "result": 101, "unit": "%"},
      {"measurement": "% Enzyme Activity (relative to DMSO controls)", "setting": "panel of 391 kinases [2]", "result": 92.32, "unit": "%"},
      {"measurement": "remaining activity at 1 µM", "setting": "panel of 391 kinases [2]; [28]", "result": 94.4, "unit": "%"},
      {"measurement": "% Enzyme Activity (relative to DMSO controls)", "setting": "panel of 391 kinases [3]", "result": 91.44, "unit": "%"},
      {"measurement": "remaining activity at 1 µM", "setting": "panel of 391 kinases [3]; [28]", "result": 95.1, "unit": "%"},
      {"measurement": "% Enzyme Activity (relative to DMSO controls)", "setting": "panel of 391 kinases [4]", "result": 98.95, "unit": "%"},
      {"measurement": "remaining activity at 1 µM", "setting": "panel of 391 kinases [4]; [28]", "result": 113, "unit": "%"},
      {"measurement": "% Enzyme Activity (relative to DMSO controls)", "setting": "panel of 391 kinases [5]", "result": 91.70, "unit": "%"},
      {"measurement": "remaining activity at 1 µM", "setting": "panel of 391 kinases [5]; [28]", "result": 95.4, "unit": "%"},
      {"measurement": "% Enzyme Activity (relative to DMSO controls)", "setting": "panel of 391 kinases [6]", "result": 93.74, "unit": "%"},
      {"measurement": "remaining activity at 1 µM", "setting": "panel of 391 kinases [6]; [28]", "result": 106, "unit": "%"},
      {"measurement": "% Enzyme Activity (relative to DMSO controls)", "setting": "panel of 391 kinases [7]", "result": 90.51, "unit": "%"},
      {"measurement": "remaining activity at 1 µM", "setting": "panel of 391 kinases [7]; [28]", "result": 92.8, "unit": "%"},
      {"measurement": "% Enzyme Activity (relative to DMSO controls)", "setting": "panel of 391 kinases [8]", "result": 95.61, "unit": "%"},
      {"measurement": "remaining activity at 1 µM", "setting": "panel of 391 kinases [8]; [28]", "result": 95.6, "unit": "%"},
      {"measurement": "% Enzyme Activity (relative to DMSO controls)", "setting": "panel of 391 kinases [9]", "result": 94.11, "unit": "%"},
      {"measurement": "remaining activity at 1 µM", "setting": "panel of 391 kinases [9]; [28]", "result": 95.6, "unit": "%"},
      {"measurement": "% Enzyme Activity (relative to DMSO controls)", "setting": "panel of 391 kinases [10]", "result": 97.74, "unit": "%"},
      {"measurement": "remaining activity at 1 µM", "setting": "panel of 391 kinases [10]; [28]", "result": 98.5, "unit": "%"},
      {"measurement": "% Enzyme Activity (relative to DMSO controls)", "setting": "panel of 391 kinases [11]", "result": 101.69, "unit": "%"},
      {"measurement": "remaining activity at 1 µM", "setting": "panel of 391 kinases [11]; [28]", "result": 104, "unit": "%"},
      {"measurement": "% Enzyme Activity (relative to DMSO controls)", "setting": "panel of 391 kinases [12]", "result": 108.67, "unit": "%"},
      {"measurement": "remaining activity at 1 µM", "setting": "panel of 391 kinases [12]; [28]", "result": 111, "unit": "%"},
      {"measurement": "% Enzyme Activity (relative to DMSO controls)", "setting": "panel of 391 kinases [13]", "result": 99.64, "unit": "%"},
      {"measurement": "remaining activity at 1 µM", "setting": "panel of 391 kinases [13]; [28]", "result": 101, "unit": "%"},
      {"measurement": "% Enzyme Activity (relative to DMSO controls)", "setting": "panel of 391 kinases [14]", "result": 97.75, "unit": "%"},
      {"measurement": "remaining activity at 1 µM", "setting": "panel of 391 kinases [14]; [28]", "result": 97.8, "unit": "%"},
      {"measurement": "% Enzyme Activity (relative to DMSO controls)", "setting": "panel of 391 kinases [15]", "result": 103.26, "unit": "%"},
      {"measurement": "remaining activity at 1 µM", "setting": "panel of 391 kinases [15]; [28]", "result": 108, "unit": "%"},
      {"measurement": "% Enzyme Activity (relative to DMSO controls)", "setting": "panel of 391 kinases [16]", "result": 92.94, "unit": "%"},
      {"measurement": "remaining activity at 1 µM", "setting": "panel of 391 kinases [16]; [28]", "result": 93.5, "unit": "%"},
      {"measurement": "% Enzyme Activity (relative to DMSO controls)", "setting": "panel of 391 kinases [17]", "result": 100.72, "unit": "%"},
      {"measurement": "remaining activity at 1 µM", "setting": "panel of 391 kinases [17]; [28]", "result": 101, "unit": "%"},
      {"measurement": "% Enzyme Activity (relative to DMSO controls)", "setting": "panel of 391 kinases [18]", "result": 103.36, "unit": "%"},
      {"measurement": "remaining activity at 1 µM", "setting": "panel of 391 kinases [18]; [28]", "result": 103, "unit": "%"},
      {"measurement": "% Enzyme Activity (relative to DMSO controls)", "setting": "panel of 391 kinases [19]", "result": 114.65, "unit": "%"},
      {"measurement": "remaining activity at 1 µM", "setting": "panel of 391 kinases [19]; [28]", "result": 116, "unit": "%"},
      {"measurement": "% Enzyme Activity (relative to DMSO controls)", "setting": "panel of 391 kinases [20]", "result": 129.26, "unit": "%"},
      {"measurement": "remaining activity at 1 µM", "setting": "panel of 391 kinases [20]; [28]", "result": 135, "unit": "%"},
      {"measurement": "% Enzyme Activity (relative to DMSO controls)", "setting": "panel of 391 kinases [21]", "result": 100.53, "unit": "%"},
      {"measurement": "remaining activity at 1 µM", "setting": "panel of 391 kinases [21]; [28]", "result": 102, "unit": "%"},
      {"measurement": "% Enzyme Activity (relative to DMSO controls)", "setting": "panel of 391 kinases [22]", "result": 73.97, "unit": "%"},
      {"measurement": "remaining activity at 1 µM", "setting": "panel of 391 kinases [22]; [28]", "result": 75.6, "unit": "%"},
      {"measurement": "% Enzyme Activity (relative to DMSO controls)", "setting": "panel of 391 kinases [23]", "result": 90.11, "unit": "%"},
      {"measurement": "remaining activity at 1 µM", "setting": "panel of 391 kinases [23]; [28]", "result": 90.5, "unit": "%"},
      {"measurement": "% Enzyme Activity (relative to DMSO controls)", "setting": "panel of 391 kinases [24]", "result": 95.47, "unit": "%"},
      {"measurement": "remaining activity at 1 µM", "setting": "panel of 391 kinases [24]; [28]", "result": 100, "unit": "%"},
      {"measurement": "% Enzyme Activity (relative to DMSO controls)", "setting": "panel of 391 kinases [25]", "result": 93.95, "unit": "%"},
      {"measurement": "remaining activity at 1 µM", "setting": "panel of 391 kinases [25]; [28]", "result": 94.3, "unit": "%"},
      {"measurement": "% Enzyme Activity (relative to DMSO controls)", "setting": "panel of 391 kinases [26]", "result": 94.93, "unit": "%"},
      {"measurement": "remaining activity at 1 µM", "setting": "panel of 391 kinases [26]; [28]", "result": 99.6, "unit": "%"},
      {"measurement": "% Enzyme Activity (relative to DMSO controls)", "setting": "panel of 391 kinases [27]", "result": 100.63, "unit": "%"},
      {"measurement": "remaining activity at 1 µM", "setting": "panel of 391 kinases [27]; [28]", "result": 102, "unit": "%"}
    ]}
  ]
}
